Consider 3 molecules from patent US5036062A, “Novel esters” (Pharmacia AB, priority 1988, dated 1991).

The nature of series [1]: Oral bioavailability of estramustine in dogs (AUC of estramustine after oral dosing). Type of series: in vivo, Beagle dogs. Conditions: oral water solution, dose equivalent to 140 mg estramustine phosphate, fasting; for AUC of estramustine, Mean ± S.D.: four Beagle dogs. The protocol: Different formulations were administered orally to groups of four Beagle dogs. The dose was equivalent to 140 mg of estramustine phosphate. The animals were fasting before dosing and given 50 ml 0.01 M hydrochloric acid after the dose. Blood samples were analysed for estramustine by means of gas chromatography. (Andersson, S-B, et al., Acta Pharm.Suec. 19, 1 (1982).
The following formulations were used: […]
1. Water solution of estramustine phosphate disodium salt
2. Water solution of compound No. 6:2
3. Water solution of compound No. 4:2

The nature of series [2]: Interactions with calcium ions (observation of precipitate in acetate buffer pH=4.5 after adding equimolar calcium ions). Type of series: physicochemical. Conditions: for Observation: pH=4.5 buffer, observed for 3 h. As to the method:
Solution A: 0.3 mole/l calcium diethanesulfonate. Calcium carbonate ([…], 15 mmole) is dissolved by adding a 1.0 mole/l ethanesulfonic acid solution until a stable pH=5.3 is obtained. The solution is diluted with water to 50 ml.
Solution B: 0.03 mole/l calcium diethanesulfonate. One part of solution A is diluted with 9 parts of water.
Solution C: 0.05 mole/l sodium acetate/acetic acid buffer with pH=4.5. Glacial acetic acid (3.0 g, 0.05 mole) is dissolved in 800 ml of water, titrated with 1 mole/l sodium hydroxide solution to pH=4.5 and diluted to 1 l.
The test compound is dissolved in 50 ml of solution C. A clear solution is obtained in a few minutes. After 5 minutes an equimolar amount of calcium ions are added by adding 1 ml of solution A or B. The mixture is observed for 3 h.

Where a name gives a salt, the structure may show the parent alone.

As for `CNCC(=O)O[C@H]1CC[C@H]2[C@@H]3CCc4cc(OC(=O)N(CCCl)CCCl)ccc4[C@H]3CC[C@]12C` [Compound No. 4:2, 17-Estramustine N-methylaminoacetate, ethanesulfonate], the AUC of estramustine in series [1] (Dog No. 8729) was 94.0 ng/mlxhours; in series [1] (Dog No. 8731), 79.8 ng/mlxhours; in series [1] (Dog No. 8735), 2.6 ng/mlxhours; in series [1] (Dog No. 8742), 153.4 ng/mlxhours. In series [1], the “AUC of estramustine, Mean ± S.D.” value turned out to be 82.6 ± 62.0 ng/mlxhours.
Regarding `C[C@]12CC[C@@H]3c4ccc(OC(=O)N(CCCl)CCCl)cc4CC[C@H]3[C@@H]1CC[C@@H]2OC(=O)CN` [Compound No. 6:2, 17-estramustine aminoacetate, methanesulfonate], the AUC of estramustine in series [1] (Dog No. 8727) was 100 ng/mlxhours; in series [1] (Dog No. 8729), 140 ng/mlxhours; in series [1] (Dog No. 8731) it was 45.8 ng/mlxhours; in series [1] (Dog No. 8733), 184.8 ng/mlxhours. In series [1], the “AUC of estramustine, Mean ± S.D.” value was 118 ± 59 ng/mlxhours. In addition, in series [2] (178 mg, 0.3 mmole compound, solution A, 0.3 mmole calcium ions), the Observation entry is “Remains clear”.
Consider `C[C@]12CC[C@@H]3c4ccc(OC(=O)N(CCCl)CCCl)cc4CC[C@H]3[C@@H]1CC[C@@H]2OP(=O)(O)O` [Estramustine phosphate disodium salt, 17-estramustine dihydrogen phosphate ester, reference compound], for which the AUC of estramustine in series [1] (Dog No. 8727) is listed as 147 ng/mlxhours; in series [1] (Dog No. 8729), 16.4 ng/mlxhours; in series [1] (Dog No. 8731), 34.0 ng/mlxhours; in series [1] (Dog No. 8733), 19.5 ng/mlxhours. In addition, in series [1] (listed as Etramustine phosphate disodium salt), the “AUC of estramustine, Mean ± S.D.” value came out at 54.3 ± 62.4 ng/mlxhours. Further, in series [2] (16 mg, 0.03 mmole compound, solution B, 0.03 mmole calcium ions), the Observation entry is reported as “Becomes unclear”. Moreover, in series [2] (novel compounds at concentrations 10 times higher than those of estramustine phosphate disodium salt and calcium ions giving immediate undissolved calcium salt), the “precipitate in the presence of calcium ions (summary)” value was “immediate formation of an undissolved estramustine phosphate calcium salt”.
